Values quoted from earlier work, collected in article PMC11110755, “Structure-based virtual screening of unbiased and RNA-focused libraries to identify new ligands for the HCV IRES model system” (RSC Medicinal Chemistry, 2024).

Tested on: HCV IRES subdomain IIa
Set-up: method as in PMID 20564282
Conditions: previously reported, Fig. 1; read-out: EC50 (2-AP assay); cited from earlier work

Q: Which EC50 does the source give for CC(=O)c1ccc(C(=O)N[C@@H](CCCCN)C(=O)N2C[C@H](N)C[C@H](N)C2)cc1 [Compound 3] here?
A: 270 µM
